Legend:
[1] = target: T1, recombinant α-GAL (Homo sapiens, UniProt P06280); conditions: simultaneous administration to a patient of Fabry disease; cited from earlier work
T1 sequence (P06280 32-429): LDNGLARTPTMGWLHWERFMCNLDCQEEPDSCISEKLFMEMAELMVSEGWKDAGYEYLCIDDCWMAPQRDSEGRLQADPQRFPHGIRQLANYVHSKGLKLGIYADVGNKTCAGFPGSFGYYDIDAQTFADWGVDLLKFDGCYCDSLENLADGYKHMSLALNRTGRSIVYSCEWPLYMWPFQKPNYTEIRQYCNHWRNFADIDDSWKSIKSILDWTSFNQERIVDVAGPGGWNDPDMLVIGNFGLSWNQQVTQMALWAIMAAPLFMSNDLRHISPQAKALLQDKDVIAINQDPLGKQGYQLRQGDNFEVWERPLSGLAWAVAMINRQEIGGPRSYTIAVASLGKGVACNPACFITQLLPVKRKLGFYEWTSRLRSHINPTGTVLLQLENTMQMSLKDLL

[2] = target: T2, α-NAGA mutant (Homo sapiens, UniProt P17050, A191L/S188E); experiment: Screening of inhibitor (2): inhibition of enzyme activity of α-NAGA mutant; assay type: biochemical; conditions: 0.1, 1, or 10 μM compound, pH 4.6, 37° C., 30 minutes; FIG. 1
T2 sequence (P17050 with tags, fused parts or gaps S188E/A191L): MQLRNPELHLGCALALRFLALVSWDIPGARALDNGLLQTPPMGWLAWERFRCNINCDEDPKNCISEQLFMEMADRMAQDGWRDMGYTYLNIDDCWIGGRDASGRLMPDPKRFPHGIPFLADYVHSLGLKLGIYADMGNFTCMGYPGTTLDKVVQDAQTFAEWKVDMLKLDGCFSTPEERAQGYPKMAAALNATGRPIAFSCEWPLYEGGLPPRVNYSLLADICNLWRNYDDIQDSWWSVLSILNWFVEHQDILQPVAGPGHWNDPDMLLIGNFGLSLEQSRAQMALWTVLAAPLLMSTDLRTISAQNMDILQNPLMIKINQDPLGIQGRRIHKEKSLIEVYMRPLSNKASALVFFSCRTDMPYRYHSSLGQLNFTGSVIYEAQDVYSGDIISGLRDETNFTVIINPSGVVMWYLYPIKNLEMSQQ
Protocol: The second screening was carried out as follows: DGJ, GBS, N-C-DGJ, N-DGJ, or N-HE-DGJ dissolved in purified water or DMSO was added to 25 ng of an α-NAGA mutant and 4 mM 4-methylumbelliferylα-D-galactopyranoside dissolved in 0.1 M phosphate-citrate buffer (pH 4.6) such that a concentration of DGJ, GBS, N-C-DGJ, N-DGJ, or N-HE-DGJ became 0.1, 1, or 10 μM, and the mixture thus obtained was caused to react at 37° C. for 30 minutes (the total amount was 50 μl). After the reaction was finished, 950 μl of 0.2 M glycine buffer (pH 10.7) was added to stop the reaction. Then, released 4-methylumbelliferone was measured at an excitation wavelength of 355 nm and at a fluorescence wavelength of 460 nm with use of Wallac 1420 ARVO MX Multilabel Counter. Remaining enzyme activity was calculated based on the assumption that an enzyme activity value obtained in a case where purified water or DMSO is added instead of the inhibitor candidate compound is 100%. FIG. 1 is a view illustrating inhibition of enzyme activity of an α-NAGA mutant by DGJ.

[3] = target: T2, α-NAGA mutant; experiment: Heat stability test carried out by measuring enzyme activity; assay type: biochemical; conditions: 1 or 10 μM DGJ, FIG. 3
Protocol: 1 μM or 10 μM of DGJ was added to 10 μg/ml of an α-NAGA mutant solution which had been prepared by dissolving an α-NAGA mutant in a 10 mM sodium phosphate buffer (pH 7.5) or a 25 mM sodium acetate buffer (pH 5.2) (the total amount was 100 μl). Then, incubation was carried out at 42° C. for the solution using the 10 mM sodium phosphate buffer (pH 7.5) and at 55° C. for the solution using the 25 mM sodium acetate buffer (pH 5.2). Then, the incubated solution was sampled by 10 μl at points in time which were respectively 0 and 60 minutes after the start of the incubation. Each of the samples thus obtained was immediately added to 40 μl of a 0.1 M phosphate-citrate buffer (pH 4.6) in which a 5 mM substrate was dissolved, and enzyme activity was measured. Remaining activity is indicated based on an assumption that an enzyme activity value after 0 minutes is 100%. FIG. 3 is a view showing a result of heat stability test for confirming inhibitory activity of DGJ with respect to an α-NAGA mutant.

In the case of `OCC1NCC(O)C(O)C1O` [DGJ, (2R,3S,4R,5S)-2-(hydroxymethyl)piperdine-3,4,5-triol], the “stabilization of administered recombinant α-GAL in the blood” value [1] is given as “recombinant α-GAL was stabilized”, the “inhibition of enzyme activity of an α-NAGA mutant (remaining enzyme activity)” value [2] is given as “had the effect of inhibiting activity of an α-NAGA mutant” and the “heat stability of the α-NAGA mutant (remaining activity after 60 minutes)” value ([3]; acidic condition pH 5.2, 55° C., higher improvement than at neutral pH) is given as “heat stability of the α-NAGA mutant was improved”. For the same molecule, the “heat stability of the α-NAGA mutant (remaining activity after 60 minutes)” value ([3]; neutral condition pH 7.5, 42° C.) was “heat stability of the α-NAGA mutant was improved”.

Source: patent US20200115698A1, “PHARMACEUTICAL COMBINATION FOR TREATMENT OF FABRY DISEASE AND USE THEREOF” (MEIJI PHARMACEUTICAL UNIVERSITY, priority 2017, published 2020)
